How the values were obtained:
Experiment in all cases: KINOMEscan competition binding
Conditions in all cases: compound 10.0 µM
CDK11B (human) = CDK11B (human) (UniProt P21127)
CDK16 (human) = CDK16 (human) (UniProt Q00536)
CDK18 (human) = CDK18 (human) (UniProt Q07002)
CDK4 CCND3 (human) = CDK4 CCND3 (human) (UniProt P11802+P30281)
CDKL2 (human) = CDKL2 (human) (UniProt Q92772)
CDKL5 (human) = CDKL5 (human) (UniProt O76039)
CLK3 (human) = CLK3 (human) (UniProt P49761)
CPK1 (P.falciparum) = tested on: CPK1 (P.falciparum)
CaMK1 (human) = CaMK1 (human) (UniProt Q14012)
[1] = tested on: EGFR (human), P00533 [752-759 del]
EPHA2 (human) = EPHA2 (human) (UniProt P29317)
FGFR2 (human) = FGFR2 (human) (UniProt P21802)
FGR (human) = FGR (human) (UniProt P09769)
FLT4 (human) = FLT4 (human) (UniProt P35916)
GRK1 (human) = GRK1 (human) (UniProt Q15835)
GRK4 (human) = GRK4 (human) (UniProt P32298)
GRK7 (human) = GRK7 (human) (UniProt Q8WTQ7)
[2] = biological target: JAK1 JH1 catalytic (human) (UniProt P23458)
LCK (human) = LCK (human) (UniProt P06239)
MAP2K6 (human) = MAP2K6 (human) (UniProt P52564)
MAP3K10 (human) = MAP3K10 (human) (UniProt Q02779)
MKNK2 (human) = MKNK2 (human) (UniProt Q9HBH9)
MLTK (human) = MLTK (human) (UniProt Q9NYL2)
MUSK (human) = MUSK (human) (UniProt O15146)
NTRK2 (human) = NTRK2 (human) (UniProt Q16620)
PDGFRA (human) = PDGFRA (human) (UniProt P16234)
PIP4K2C (human) = PIP4K2C (human) (UniProt Q8TBX8)
PKN3 (M.tuberculosis) = PKN3 (M.tuberculosis) (UniProt Q6P5Z2)
PTK2B (human) = PTK2B (human) (UniProt Q14289)
[3] = tested on: RET (human), P07949 [V804M]
ROCK1 (human) = ROCK1 (human) (UniProt Q13464)
SIK2 (human) = SIK2 (human) (UniProt Q9H0K1)
SRPK2 (human) = SRPK2 (human) (UniProt P78362)
STK24 (human) = STK24 (human) (UniProt Q9Y6E0)
STK33 (human) = STK33 (human) (UniProt Q9BYT3)
STK38L (human) = STK38L (human) (UniProt Q9Y2H1)
TAOK2 (human) = TAOK2 (human) (UniProt Q9UL54)
TLK1 (human) = TLK1 (human) (UniProt Q9UKI8)
YES1 (human) = YES1 (human) (UniProt P07947)
YSK4 (human) = YSK4 (human) (UniProt Q56UN5)

Chain of STK33 (human) (Q9BYT3 whole entry, looked up): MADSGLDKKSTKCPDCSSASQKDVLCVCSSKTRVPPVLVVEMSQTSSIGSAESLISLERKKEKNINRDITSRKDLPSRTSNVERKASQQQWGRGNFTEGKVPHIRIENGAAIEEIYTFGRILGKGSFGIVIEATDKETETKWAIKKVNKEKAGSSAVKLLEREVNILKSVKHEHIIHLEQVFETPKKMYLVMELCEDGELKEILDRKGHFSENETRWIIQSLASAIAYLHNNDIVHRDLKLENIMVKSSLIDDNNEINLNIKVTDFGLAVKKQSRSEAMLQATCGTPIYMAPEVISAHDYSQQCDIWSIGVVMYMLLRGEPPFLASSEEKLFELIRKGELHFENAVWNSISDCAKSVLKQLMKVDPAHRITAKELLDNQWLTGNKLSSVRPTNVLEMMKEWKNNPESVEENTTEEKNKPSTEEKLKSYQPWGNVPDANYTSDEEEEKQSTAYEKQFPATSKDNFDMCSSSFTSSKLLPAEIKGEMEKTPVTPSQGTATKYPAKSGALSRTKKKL
Chain of CDK18 (human) (Q07002 whole entry, looked up): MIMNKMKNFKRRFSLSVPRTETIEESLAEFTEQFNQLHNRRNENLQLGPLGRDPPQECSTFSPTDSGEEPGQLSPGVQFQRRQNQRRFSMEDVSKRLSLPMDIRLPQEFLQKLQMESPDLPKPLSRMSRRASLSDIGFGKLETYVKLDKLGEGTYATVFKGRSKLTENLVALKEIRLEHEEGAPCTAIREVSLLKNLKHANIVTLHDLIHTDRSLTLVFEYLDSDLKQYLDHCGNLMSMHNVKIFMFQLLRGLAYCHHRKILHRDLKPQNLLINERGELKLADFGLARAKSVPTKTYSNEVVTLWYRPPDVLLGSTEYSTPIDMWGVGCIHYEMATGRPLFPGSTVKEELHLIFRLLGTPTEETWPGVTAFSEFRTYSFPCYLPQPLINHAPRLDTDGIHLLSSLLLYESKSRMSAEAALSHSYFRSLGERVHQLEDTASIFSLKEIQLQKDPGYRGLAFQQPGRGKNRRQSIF
Chain of TAOK2 (human) (Q9UL54 whole entry, looked up): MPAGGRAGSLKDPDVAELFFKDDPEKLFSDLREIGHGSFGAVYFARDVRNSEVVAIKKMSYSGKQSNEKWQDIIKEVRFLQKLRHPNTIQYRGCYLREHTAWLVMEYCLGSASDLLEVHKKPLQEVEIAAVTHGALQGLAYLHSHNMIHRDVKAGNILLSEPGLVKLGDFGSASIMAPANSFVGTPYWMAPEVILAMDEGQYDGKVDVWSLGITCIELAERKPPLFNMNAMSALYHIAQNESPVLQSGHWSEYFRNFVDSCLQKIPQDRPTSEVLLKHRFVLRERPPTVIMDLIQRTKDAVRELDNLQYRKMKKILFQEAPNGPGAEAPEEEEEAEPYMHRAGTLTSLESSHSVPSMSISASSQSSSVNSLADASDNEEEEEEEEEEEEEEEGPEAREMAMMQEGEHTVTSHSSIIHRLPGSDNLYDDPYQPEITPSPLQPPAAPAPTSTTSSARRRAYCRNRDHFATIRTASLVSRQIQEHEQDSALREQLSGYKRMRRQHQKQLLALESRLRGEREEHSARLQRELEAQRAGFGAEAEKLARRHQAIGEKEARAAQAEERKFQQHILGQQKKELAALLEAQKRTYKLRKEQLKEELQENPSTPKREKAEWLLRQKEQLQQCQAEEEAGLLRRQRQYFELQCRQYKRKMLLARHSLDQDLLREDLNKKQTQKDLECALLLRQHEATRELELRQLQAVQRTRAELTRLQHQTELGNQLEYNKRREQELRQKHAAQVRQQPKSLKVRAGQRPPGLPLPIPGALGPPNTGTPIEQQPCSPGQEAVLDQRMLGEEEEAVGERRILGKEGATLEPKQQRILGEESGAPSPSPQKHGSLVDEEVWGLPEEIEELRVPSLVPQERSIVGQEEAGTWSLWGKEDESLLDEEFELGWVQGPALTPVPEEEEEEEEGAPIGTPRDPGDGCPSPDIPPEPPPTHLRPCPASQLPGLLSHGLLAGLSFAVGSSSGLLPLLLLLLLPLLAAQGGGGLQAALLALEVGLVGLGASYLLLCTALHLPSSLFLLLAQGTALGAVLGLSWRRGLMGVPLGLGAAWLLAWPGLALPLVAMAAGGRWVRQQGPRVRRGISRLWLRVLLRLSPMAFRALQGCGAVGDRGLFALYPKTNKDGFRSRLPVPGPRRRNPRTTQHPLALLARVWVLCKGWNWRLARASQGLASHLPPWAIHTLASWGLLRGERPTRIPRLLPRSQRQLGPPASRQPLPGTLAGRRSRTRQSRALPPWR
Chain of NTRK2 (human) (Q16620 whole entry, looked up): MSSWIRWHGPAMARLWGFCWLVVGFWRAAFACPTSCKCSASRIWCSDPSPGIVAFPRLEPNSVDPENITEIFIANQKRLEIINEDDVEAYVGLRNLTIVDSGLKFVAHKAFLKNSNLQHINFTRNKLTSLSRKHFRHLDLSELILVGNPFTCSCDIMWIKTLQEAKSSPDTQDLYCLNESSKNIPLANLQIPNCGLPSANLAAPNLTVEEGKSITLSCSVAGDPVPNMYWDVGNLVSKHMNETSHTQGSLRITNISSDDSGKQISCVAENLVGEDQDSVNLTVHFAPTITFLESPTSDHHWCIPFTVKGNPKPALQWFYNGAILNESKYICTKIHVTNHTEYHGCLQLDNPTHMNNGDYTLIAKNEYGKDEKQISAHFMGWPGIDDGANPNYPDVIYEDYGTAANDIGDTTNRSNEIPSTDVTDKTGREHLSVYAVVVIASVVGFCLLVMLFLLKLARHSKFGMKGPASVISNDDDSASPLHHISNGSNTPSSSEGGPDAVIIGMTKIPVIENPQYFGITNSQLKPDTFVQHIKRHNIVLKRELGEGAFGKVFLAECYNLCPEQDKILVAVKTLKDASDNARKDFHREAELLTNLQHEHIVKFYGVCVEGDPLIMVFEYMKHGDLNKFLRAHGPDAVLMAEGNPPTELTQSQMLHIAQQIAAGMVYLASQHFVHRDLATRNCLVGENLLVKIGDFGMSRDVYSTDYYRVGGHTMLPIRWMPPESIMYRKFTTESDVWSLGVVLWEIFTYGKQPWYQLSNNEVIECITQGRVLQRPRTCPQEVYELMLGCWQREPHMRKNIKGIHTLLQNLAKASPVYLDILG
Chain of MLTK (human) (Q9NYL2 whole entry, looked up): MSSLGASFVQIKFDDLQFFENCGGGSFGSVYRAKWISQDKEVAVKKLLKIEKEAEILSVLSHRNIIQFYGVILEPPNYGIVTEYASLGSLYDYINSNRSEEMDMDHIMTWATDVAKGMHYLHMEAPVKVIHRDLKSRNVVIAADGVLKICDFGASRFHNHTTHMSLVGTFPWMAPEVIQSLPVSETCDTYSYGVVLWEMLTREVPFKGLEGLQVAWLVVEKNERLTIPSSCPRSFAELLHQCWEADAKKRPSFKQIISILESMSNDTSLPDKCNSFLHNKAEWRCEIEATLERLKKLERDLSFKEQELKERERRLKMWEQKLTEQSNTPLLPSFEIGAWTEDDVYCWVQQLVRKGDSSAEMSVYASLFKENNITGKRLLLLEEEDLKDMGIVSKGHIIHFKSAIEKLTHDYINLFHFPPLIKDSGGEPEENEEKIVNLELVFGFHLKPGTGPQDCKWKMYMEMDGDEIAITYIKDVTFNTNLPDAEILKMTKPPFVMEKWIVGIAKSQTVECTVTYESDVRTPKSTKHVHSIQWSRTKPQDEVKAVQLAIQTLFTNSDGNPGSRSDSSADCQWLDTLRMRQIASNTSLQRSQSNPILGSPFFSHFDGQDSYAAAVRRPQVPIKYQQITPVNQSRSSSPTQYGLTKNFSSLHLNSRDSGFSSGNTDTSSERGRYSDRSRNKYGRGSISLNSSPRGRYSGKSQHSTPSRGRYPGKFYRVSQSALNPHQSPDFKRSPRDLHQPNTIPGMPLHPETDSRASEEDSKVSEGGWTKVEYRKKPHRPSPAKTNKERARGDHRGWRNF
Chain of CDK11B (human) (P21127 whole entry, looked up): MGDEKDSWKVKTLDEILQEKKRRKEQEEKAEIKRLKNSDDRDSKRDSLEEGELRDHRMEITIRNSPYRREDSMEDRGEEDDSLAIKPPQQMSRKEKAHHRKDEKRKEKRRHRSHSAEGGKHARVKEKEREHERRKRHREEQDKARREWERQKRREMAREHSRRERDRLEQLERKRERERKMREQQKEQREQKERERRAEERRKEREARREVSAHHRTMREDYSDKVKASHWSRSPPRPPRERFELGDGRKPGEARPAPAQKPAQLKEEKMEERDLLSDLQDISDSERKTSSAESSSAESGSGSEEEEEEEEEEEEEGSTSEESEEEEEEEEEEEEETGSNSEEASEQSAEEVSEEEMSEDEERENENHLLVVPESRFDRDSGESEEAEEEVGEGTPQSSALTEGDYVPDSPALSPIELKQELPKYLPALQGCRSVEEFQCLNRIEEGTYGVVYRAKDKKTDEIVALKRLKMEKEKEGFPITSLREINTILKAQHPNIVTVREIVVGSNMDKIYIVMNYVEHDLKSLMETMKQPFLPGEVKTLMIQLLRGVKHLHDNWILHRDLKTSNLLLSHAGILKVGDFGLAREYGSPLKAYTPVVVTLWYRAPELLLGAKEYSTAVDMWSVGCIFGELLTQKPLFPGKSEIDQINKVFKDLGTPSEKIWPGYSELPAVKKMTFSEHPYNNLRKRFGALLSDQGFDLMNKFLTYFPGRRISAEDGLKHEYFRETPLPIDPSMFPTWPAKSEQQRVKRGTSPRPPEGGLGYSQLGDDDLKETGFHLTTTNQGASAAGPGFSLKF
Chain of MAP2K6 (human) (P52564 whole entry, looked up): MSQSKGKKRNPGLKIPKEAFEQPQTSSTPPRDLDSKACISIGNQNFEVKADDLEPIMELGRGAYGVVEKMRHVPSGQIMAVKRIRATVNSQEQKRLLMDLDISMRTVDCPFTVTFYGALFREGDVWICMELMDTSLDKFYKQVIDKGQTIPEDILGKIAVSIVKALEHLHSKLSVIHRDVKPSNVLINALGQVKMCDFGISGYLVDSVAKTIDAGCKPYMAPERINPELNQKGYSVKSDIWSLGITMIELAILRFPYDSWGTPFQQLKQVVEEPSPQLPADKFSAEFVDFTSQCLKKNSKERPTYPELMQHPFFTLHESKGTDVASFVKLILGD

Row | SMILES | kinase still bound, per cent of control (CDK11B (human)) [%] | kinase still bound, per cent of control (CDK16 (human)) [%] | kinase still bound, per cent of control (CDK18 (human)) [%] | kinase still bound, per cent of control (CDK4 CCND3 (human)) [%] | kinase still bound, per cent of control (CDKL2 (human)) [%] | kinase still bound, per cent of control (CDKL5 (human)) [%] | kinase still bound, per cent of control (CLK3 (human)) [%] | kinase still bound, per cent of control (CPK1 (P.falciparum)) [%] | kinase still bound, per cent of control (CaMK1 (human)) [%] | kinase still bound, per cent of control [1] [%] | kinase still bound, per cent of control (EPHA2 (human)) [%] | kinase still bound, per cent of control (FGFR2 (human)) [%] | kinase still bound, per cent of control (FGR (human)) [%] | kinase still bound, per cent of control (FLT4 (human)) [%] | kinase still bound, per cent of control (GRK1 (human)) [%] | kinase still bound, per cent of control (GRK4 (human)) [%] | kinase still bound, per cent of control (GRK7 (human)) [%] | kinase still bound, per cent of control [2] [%] | kinase still bound, per cent of control (LCK (human)) [%] | kinase still bound, per cent of control (MAP2K6 (human)) [%] | further results
1 | COc1ccc(N(C(=O)Oc2c(C)cccc2C)c2ccnc(Nc3ccc(N4CCN(C)CC4)cc3)n2)c(OC)c1 | 58 | 98 | 100 | 26 | 0.5 | 100 | 88 | 5 | 83 | 1 | 0 | 0.45 | 0.15 | 16 | 100 | 7.9 | 72 | 36 | 0.1 | 66 | kinase still bound, per cent of control (MAP3K10 (human)): 19%; kinase still bound, per cent of control (MKNK2 (human)): 90%; kinase still bound, per cent of control (MLTK (human)): 24%; kinase still bound, per cent of control (MUSK (human)): 43%; kinase still bound, per cent of control (NTRK2 (human)): 82%; kinase still bound, per cent of control (PDGFRA (human)): 9.9%; kinase still bound, per cent of control (PIP4K2C (human)): 100%; kinase still bound, per cent of control (PKN3 (M.tuberculosis)): 90%; kinase still bound, per cent of control (PTK2B (human)): 9%; kinase still bound, per cent of control [3]: 66%; kinase still bound, per cent of control (ROCK1 (human)): 65%; kinase still bound, per cent of control (SIK2 (human)): 7.6%; kinase still bound, per cent of control (SRPK2 (human)): 42%; kinase still bound, per cent of control (STK24 (human)): 52%; kinase still bound, per cent of control (STK33 (human)): 28%; kinase still bound, per cent of control (STK38L (human)): 100%; kinase still bound, per cent of control (TAOK2 (human)): 2.4%; kinase still bound, per cent of control (TLK1 (human)): 45%; kinase still bound, per cent of control (YES1 (human)): 0.05%; kinase still bound, per cent of control (YSK4 (human)): 6%
2 | CCN1CCN(C(=O)Cc2ccc(Nc3ncc(F)c(Nc4ccc(C(=O)Nc5ccccc5Cl)cc4)n3)cc2)CC1 | 87 | 40 | 43 | 21 | 24 | 100 | 23 | 29 | 14 | 56 | 51 | 25 | 43 | 7.6 | 100 | 8.8 | 71 | 6.9 | 6.6 | 44 | kinase still bound, per cent of control (MAP3K10 (human)): 7.2%; kinase still bound, per cent of control (MKNK2 (human)): 5.6%; kinase still bound, per cent of control (MLTK (human)): 2.9%; kinase still bound, per cent of control (MUSK (human)): 11%; kinase still bound, per cent of control (NTRK2 (human)): 27%; kinase still bound, per cent of control (PDGFRA (human)): 38%; kinase still bound, per cent of control (PIP4K2C (human)): 38%; kinase still bound, per cent of control (PKN3 (M.tuberculosis)): 5%; kinase still bound, per cent of control (PTK2B (human)): 33%; kinase still bound, per cent of control [3]: 4.6%; kinase still bound, per cent of control (ROCK1 (human)): 81%; kinase still bound, per cent of control (SIK2 (human)): 20%; kinase still bound, per cent of control (SRPK2 (human)): 11%; kinase still bound, per cent of control (STK24 (human)): 32%; kinase still bound, per cent of control (STK33 (human)): 35%; kinase still bound, per cent of control (STK38L (human)): 60%; kinase still bound, per cent of control (TAOK2 (human)): 56%; kinase still bound, per cent of control (TLK1 (human)): 19%; kinase still bound, per cent of control (YES1 (human)): 60%; kinase still bound, per cent of control (YSK4 (human)): 7.2%
3 | COc1cc2ncnc(-n3nc(-c4ccccn4)nc3N)c2cc1OC | 93 | 47 | 62 | 60 | 2 | 0.3 | 3.6 | 1.4 | 31 | 58 | 27 | 76 | 36 | 14 | 41 | 39 | 11 | 100 | 5.2 | 46 | kinase still bound, per cent of control (MAP3K10 (human)): 62%; kinase still bound, per cent of control (MKNK2 (human)): 8.4%; kinase still bound, per cent of control (MLTK (human)): 4.5%; kinase still bound, per cent of control (MUSK (human)): 71%; kinase still bound, per cent of control (NTRK2 (human)): 47%; kinase still bound, per cent of control (PDGFRA (human)): 57%; kinase still bound, per cent of control (PIP4K2C (human)): 1.1%; kinase still bound, per cent of control (PKN3 (M.tuberculosis)): 7.1%; kinase still bound, per cent of control (PTK2B (human)): 75%; kinase still bound, per cent of control [3]: 66%; kinase still bound, per cent of control (ROCK1 (human)): 21%; kinase still bound, per cent of control (SIK2 (human)): 61%; kinase still bound, per cent of control (SRPK2 (human)): 88%; kinase still bound, per cent of control (STK24 (human)): 56%; kinase still bound, per cent of control (STK33 (human)): 6.4%; kinase still bound, per cent of control (STK38L (human)): 69%; kinase still bound, per cent of control (TAOK2 (human)): 42%; kinase still bound, per cent of control (TLK1 (human)): 46%; kinase still bound, per cent of control (YES1 (human)): 77%; kinase still bound, per cent of control (YSK4 (human)): 0.45%

— the kinase profiling compilation of Christmann-Franck et al. (2016)
